In brackets after ≈: the same amount, converted by molar mass. Read-outs that look alike come from different tables or passages of the source.
Legend:
EcIspE [1] = target: T1, EcIspE (Escherichia coli, UniProt P62615); assay: IspE inhibition assay (Promega Kinase-Glo Plus), IC50 determination; format: biochemical; settings: for Ligand efficiency: from IC50 converted to Ki assuming competitive inhibition of the cytidine binding site, KM 150 µM, [CDP-ME] 500 µM, T = 298 K; for fold weaker IC50 / loss in potency compared to the screening hit: relative to parent screening hit (4, 7 or 8); for EcIspE inhibition at 100 µM: typical protein kinase inhibitors evaluated as possible standard inhibitor
T1 construct: made in house
Experimental: Inhibition of EcIspE was measured using the Promega Kinase-Glo®-Plus kit. This kit determines the remaining ATP concentration after the kinase reaction took place by converting luciferin to oxyluciferin via an ATP-dependent luciferase. Oxyluciferin is chemoluminescent and can be detected using a plate reader.
The assay was performed under the following conditions: 90 µM ATP, 500 µM CDP-ME, 200 nM EcIspE in 100 mM Tris-HCl, pH 8.5, 20 mM MgCl2, 2% DMSO, 0.01% (v/v) Triton-X 100. The reaction was carried out in 384-well plates with 25 µl reaction volumes, incubated at 25°C for 180 min, and stopped with 25 µl Kinase-Glo® Plus reagent (Promega, Madison, USA). The chemoluminescence signal was developed for 45 min at room temperature and read out in a plate reader (TopCount, PerkinElmer, USA). To monitor assay performance and to control for inhibition of the luciferase of the Kinase-Glo® Plus kit wells containing either the reaction mixture plus compound 3 or 4 or all ingredients except for CDP-ME were also prepared. Further, as quality control for each assay plate, wells containing the kinase reaction without an inhibitor, and wells containing only ATP in assay buffer were prepared. The signals of these wells were averaged (AVHIGH, AVLOW) and used to calculate the signal to noise ratio (AVHIGH/AVLOW) and Z′ (1− [drawing 1]; SD: standard deviation). The best performance was obtained with an ATP concentration of 90 µM and a CDP-ME concentration of 500 µM (Signal to noise ratio = 3.3, Z′ = 0.69 in assay development). In this setup the ATP and CDP-ME concentrations are ∼0.2×K M and ∼3×K M, respectively. Consequently, the assay can be used to detect ligands binding to both the substrate and co-factor binding sites.
(§1) Compounds were dissolved in DMSO at concentrations between 10 and 200 mM (depending on maximal solubility) and added to the reaction mixture with a final concentration of 2% DMSO (v/v). For compounds where IspE inhibition was indicated, a 1∶3 dilution series in DMSO was prepared and tested in the same endpoint assay. IC50 values were derived by non-linear regression with a 4-parameter fit to the following equation in GraFit (Erithacus Software Ltd., Surrey, UK). [drawing 2] where y: measured signal of assay: ymax: saturated signal: [I]: inhibitor concentration: slope: Hill slope; ymin: background signal of assay.
As the assay was performed at relatively high substrate concentrations (∼3×K M) for ligand efficiency calculations, the measured IC50 values were first converted to K i values.
Ligand efficiencies were calculated using the formula: [drawing 4] where T = 298 K and R = the ideal gas constant.

[2] = Solubility limit in the assay; format: physicochemical; settings: EcIspE assay reaction mixture, aqueous buffer, kinetic from dmso stock; highest concentration tested in the EcIspE assay
Description: In the modelled binding mode of ligand 4 the pyrrolopyridine scaffold is sandwiched between Tyr24 and Tyr175 and potentially interacts with His25 via three hydrogen bonds (Figure 12a). In addition, the charged amino group in the tetrahydropyrimidinium ring may form a salt bridge interaction with Asp130. Commercially available analogues of this compound were selected to probe possible interactions with Asp130, His25 and the backbone of Lys145 (Figure 13, Table 4). […] Accordingly, these compounds can no longer form a salt bridge with Asp130. In the predicted binding mode of 12 a neutral hydrogen-bond via the thio-urea group is formed with Asp130 instead while 13 is assumed to interact with Lys9 NZ and Thr171 OG1 (Figure 12c and d). […] In order to accommodate 14 in the binding site in a similar binding mode as 4, structural rearrangements are required to avoid a steric clash of the cyclo-propyl moiety with the backbone carbonyl group of Lys145 (Figure 2). An alternative binding mode for this compound is also possible in which the core is flipped by 180° compared to 4 but still forms hydrogen bonds with His25 (Figure 12b). In this orientation, both substituents are solvent exposed.
as §1

EcIspE [3] = target: T1, EcIspE; parameters: method as in PMID 18033714, PMID 18633530, PMID 18422643, PMID 17361977, PMID 21903402; settings: substrate-like IspE inhibitors, Figure 4; cited from earlier work
[4] = average of three independent measurements, SD in brackets, 90 µM ATP, 500 µM CDP-ME, 200 nM EcIspE, pH 8.5, n.i. = no inhibition at solubility limit measured, read-out: IC50 [M] (SD)

T1 sequence (P62615 whole entry): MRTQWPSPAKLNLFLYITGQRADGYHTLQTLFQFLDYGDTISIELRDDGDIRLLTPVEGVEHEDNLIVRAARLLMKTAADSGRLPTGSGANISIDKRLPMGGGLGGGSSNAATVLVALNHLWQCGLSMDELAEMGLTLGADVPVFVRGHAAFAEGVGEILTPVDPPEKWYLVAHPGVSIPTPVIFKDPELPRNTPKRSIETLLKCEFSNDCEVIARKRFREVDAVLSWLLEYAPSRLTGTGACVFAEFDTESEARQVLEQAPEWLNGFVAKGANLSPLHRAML

Molecule	IC50 (EcIspE [1]; [4]) [M]	Ligand efficiency (EcIspE [1])	also measured
Cc1[nH]c2ccccc2c1C(Nc1cccc(Cl)c1)c1ccccn1 (centres unmarked) [Compound 20]	0.0025	0.18 kcal/mol per non-hydrogen atom	fold weaker IC50 / loss in potency compared to the screening hit (EcIspE [1]): 130 fold
CN[C@@H]1C[C@H]2O[C@@](C)([C@@H]1OC)n1c3ccccc3c3c4c(c5c6ccccc6n2c5c31)C(=O)NC4 [staurosporine, reference compound]			EcIspE inhibition at 100 µM (EcIspE [1]): none of the compounds showed any EcIspE inhibition
CC(C)c1cc2cccnc2n1CCC(=O)O [Compound 17]			solubility [2]: 1000 to 5000 µM (≈ 232 to 1160 µg/mL)
Cc1[nH]c2ccccc2c1C(Nc1ccccn1)c1cccc(Cl)c1 (centres unmarked) [Compound 18]		0.21 kcal/mol per non-hydrogen atom	
COc1ccc(-n2c(-c3cccnc3)nc3ccccc3c2=O)cc1 [Compound 21]	2.7e-05	0.28 kcal/mol per non-hydrogen atom	fold weaker IC50 / loss in potency compared to the screening hit (EcIspE [1]): 11 fold
Nc1n[nH]c(NCc2cccnc2)n1 [Compound 1]	0.0018	0.33 kcal/mol per non-hydrogen atom	
O=C1Cc2c([nH]c3ccc(Br)cc23)-c2ccccc2N1 [kenpaullone, reference compound]			EcIspE inhibition at 100 µM (EcIspE [1]): none of the compounds showed any EcIspE inhibition
purvalanol [reference compound]			EcIspE inhibition at 100 µM (EcIspE [1]): none of the compounds showed any EcIspE inhibition
O=c1c2ccccc2nc(-c2ccccn2)n1-c1ccccc1 [Compound 22]	0.00018	0.26 kcal/mol per non-hydrogen atom	
C1=C(c2c[nH]c3ncccc23)CCNC1 [Compound 4]		0.32 kcal/mol per non-hydrogen atom	IC50 (EcIspE [1]): 0.0015 M
Nc1cc(-c2ccco2)[nH]n1 [Compound 6]	0.0035	0.28 kcal/mol per non-hydrogen atom	
Oc1ccccc1CNc1nccs1 [Compound 10]	0.0066	0.27 kcal/mol per non-hydrogen atom	
Oc1csc(Nc2nccs2)n1 [Compound 3]		0.50 kcal/mol per non-hydrogen atom	IC50 (EcIspE [1]; read-out: IC50): 0.00016 M
c1csc(NC2CCCCC2)n1 [Compound 9]	0.0094	0.30 kcal/mol per non-hydrogen atom	
C1=C(c2c[nH]c3ncccc23)CCN(c2ncccn2)C1 [Compound 13]	0.00047	0.26 kcal/mol per non-hydrogen atom	
CC(C)c1cc2cccnc2n1CCCN [Compound 16]			solubility [2]: 1000 to 5000 µM (≈ 217 to 1090 µg/mL)
CC(C)Nc1nccs1 [Compound 11]	0.002	0.50 kcal/mol per non-hydrogen atom	
CNC(=S)N1CC=C(c2c[nH]c3ncccc23)CC1 [Compound 12]	0.00083	0.27 kcal/mol per non-hydrogen atom	
CN1CC=C(c2c(C3CC3)[nH]c3ncccc23)CC1 [Compound 14]	0.0087	0.19 kcal/mol per non-hydrogen atom	fold weaker IC50 / loss in potency compared to the screening hit (EcIspE [1]): 5.8 fold
c1ccc(C[n+]2cccc3cc[nH]c32)cc1 [Compound 15]			solubility [2]: 1000 to 5000 µM
Cc1[nH]c2ccccc2c1C(Nc1ccccn1)c1ccccc1Cl (centres unmarked) [Compound 19]	0.0024	0.18 kcal/mol per non-hydrogen atom	
Nc1ccn([C@@H]2O[C@H](CNC(=O)Cc3nc4ccccc4[nH]3)[C@@H](O)[C@H]2O)c(=O)n1 [a]			IC50 (EcIspE [3]): 2 mM
COc1ccc(-n2c(-c3ccncc3)nc3ccccc3c2=O)cc1 [Compound 23]	0.00032	0.23 kcal/mol per non-hydrogen atom	
Nc1ccn([C@@H]2O[C@H](CNC(=O)CCc3nc4ccccc4[nH]3)[C@@H](O)[C@H]2O)c(=O)n1 [b]			IC50 (EcIspE [3]): 2 mM
O=c1c2ccccc2nc(-c2cccnc2)n1-c1ccc(Br)cn1 [Compound 8]		0.35 kcal/mol per non-hydrogen atom	IC50 (EcIspE [1]): 2.5e-06 M
Nc1nc(N)c2[nH]c(=O)[nH]c2n1 [Compound 5]	0.0023	0.37 kcal/mol per non-hydrogen atom	
Cc1[nH]c2ccccc2c1C(Nc1ccccn1)c1ccccc1O (centres unmarked) [Compound 7]		0.29 kcal/mol per non-hydrogen atom	IC50 (EcIspE [1]; read-out: IC50): 1.9e-05 M
CNc1ncc(Br)nc1N [Compound 2]	0.00059	0.53 kcal/mol per non-hydrogen atom	

— PMC3340893, “IspE Inhibitors Identified by a Combination of In Silico and In Vitro High-Throughput Screening” (PLoS ONE, 2012)
